According to a compilation of properties of binary mixtures (doi:10.1021/acs.jpcb.8b11892):

Test: xn = mol fraction of the nth substance listed
Conditions: 101 kPa

O + CCOS(=O)(=O)[O-].CC[n+]1ccn(C)c1
x2 = 0
Conditions	viscosity [mPa·s]
293.15 K	0.97
298.15 K	0.87
303.15 K	0.78
313.15 K	0.64

CCOS(=O)(=O)[O-].CC[n+]1ccn(C)c1 + O
Conditions	electrical conductivity, 298.15 K [S/m]	electrical conductivity, 313.15 K [S/m]	viscosity, 293.15 K [mPa·s]	viscosity, 298.15 K [mPa·s]	viscosity, 303.15 K [mPa·s]	viscosity, 313.15 K [mPa·s]
x1 = 0.001	0.29	0.39	0.99	–	0.81	0.66
x1 = 0.003	–	–	1.04	–	0.84	–
x1 = 0.004	1.1	1.5	1.07	0.97	0.87	0.71
x1 = 0.006	1.5	2	1.14	1.02	0.91	0.74
x1 = 0.008	1.9	–	1.2	1.07	0.96	–
x1 = 0.013	2.5	–	1.34	1.19	1.06	–
x1 = 0.019	2.9	–	1.54	1.36	1.21	–
x1 = 0.032	3.7	5.1	1.93	1.7	1.5	1.2
x1 = 0.047	–	5.7	2.48	–	–	1.51
x1 = 0.071	4.1	5.8	3.42	2.97	2.6	2.03
x1 = 0.103	3.7	5.4	4.8	4.14	3.59	2.77
x1 = 0.151	3.2	–	–	6.06	5.22	–
x1 = 0.229	2.5	3.7	11	9.33	7.98	6
x1 = 0.303	2	3	15.2	12.9	10.9	8.15
x1 = 0.473	1.2	1.9	27.4	22.9	19.3	14.1
x1 = 0.588	0.92	–	39.5	32.7	27.2	–
x1 = 0.642	0.81	–	46.7	38.3	31.7	–
x1 = 1	0.4	0.73	122	95.5	75.4	49.4

CC[n+]1ccn(C)c1.O=S(=O)([O-])C(F)(F)F + O
Conditions	electrical conductivity, 298.15 K [S/m]	electrical conductivity, 313.15 K [S/m]	viscosity, 293.15 K [mPa·s]	viscosity, 298.15 K [mPa·s]	viscosity, 303.15 K [mPa·s]	viscosity, 313.15 K [mPa·s]
x1 = 0.001	0.28	0.37	1.01	0.9	0.81	0.67
x1 = 0.002	0.66	0.93	1.03	0.92	0.83	0.69
x1 = 0.004	1	–	–	0.96	0.86	–
x1 = 0.005	–	1.8	1.11	–	0.88	0.72
x1 = 0.008	1.7	2.3	1.16	1.03	–	0.75
x1 = 0.012	–	3.1	1.26	–	0.99	0.82
x1 = 0.017	–	–	1.38	–	–	–
x1 = 0.029	3.6	–	–	1.47	1.31	–
x1 = 0.041	–	5.6	–	–	1.57	1.26
x1 = 0.064	–	6.4	2.48	–	1.92	1.52
x1 = 0.094	4.8	6.6	3.21	2.81	2.47	1.96
x1 = 0.137	–	–	4.24	–	–	–
x1 = 0.216	3.9	5.7	6.17	5.37	4.71	3.69
x1 = 0.391	2.8	4.1	10.9	9.43	–	6.41
x1 = 0.463	2.4	3.4	–	11.8	10.3	7.95
x1 = 0.512	2.1	3.1	15.5	13.4	11.7	9.02
x1 = 0.73	1.5	2.2	27.3	23.3	20	15
x1 = 1	0.91	1.4	52.4	43.8	36.7	26.6
